This note sets out measurements from EP3928779A1 (Chugai Seiyaku Kabushiki Kaisha, priority 2014, dated 2016).

In test [1] the test system is rat small-intestinal brush border membrane vesicles. Briefly: Inhibitory effect on 33PO4 uptake into rat small-intestinal brush border membrane vesicles (rapid filtration method). It is filed as biochemical. The following applies: 33PO4 uptake into rat small-intestinal BBMVs; test compound 1 µM; reacted for 60 seconds. A digest of the protocol: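 Uptake of ^33PO4 was measured by rapid filtration and liquid scintillation counting of filter-retained vesicles, after quenching with ice-cold 110 mM NaCl/1 mM KH2PO4/10 mM HEPES pH 7.5. Vesicles were brush border membranes from the upper small intestine of female Wistar rats aged 4–5 weeks.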

The test system of test [2] is adenine-induced renal failure rat. Nature of the test: Suppressive effect on rise in serum phosphorus concentration of adenine-induced renal failure rat (0.1% in feed, 3 days). The test is classed as in vivo. The following applies: feed or water, 72 h, adenine-induced renal failure Wistar male rat, test compound 0.1% of mass concentration in feed for 3 days, Fiske-Subbarow method, read-out: rate (%) of suppression of a rise in serum phosphorus concentration. The text has this: Adenine was forcedly administered orally to each Wistar male rat (7-8 weeks old) to impair renal functions and thereby prepare a hyperphosphatemia model ([…], Nagano N, Burke SK, Fukushima N. Sevelamer hydrochloride prevents ectopic calcification and renal osteodystrophy in chronic renal failure rats. Kidney Int. 2003 Aug; 64 (2): 441-50). Each test compound was mixed at a ratio of 0.1% of mass concentration with feed. The animal was fed with a given amount of the feed for 3 days. A group given feed non-supplemented with a test compound was used as a reference pathological group, and an adenine-unadministered group given feed non-supplemented with a test compound was used as a normal group. 3 days after the start of administration of the test compound, blood was collected from the jugular vein, and serum was collected. Serum phosphorus concentrations were measured by the Fiske-Subbarow method. The rate of suppression of a rise in serum phosphorus concentration was determined according to the following expression: Rate (%) of suppression of a rise in serum phosphorus concentration = (1-[(Serum phosphorus concentration of the test compound-treated pathological group)-(Serum phosphorus concentration of the normal group)]/[(Serum phosphorus concentration of the reference pathological group)-(Serum phosphorus concentration of the normal group)]) × 100 [formula] As a result, each test compound was confirmed to have a suppressive effect on a rise in serum phosphorus concentration. […]

Consider `C[C@]12CCCN1N(Cc1ccc(OCCCCOC[C@H](O)CO)c(F)c1F)C(=O)C(C(=O)Nc1ccc(C(F)(F)F)cc1-c1cc(C(F)(F)F)ncn1)=C2O` [Example 152, (4aR)-1-[[4-[4-[(2R)-2,3-Dihydroxypropoxy]butoxy]-2,3-difluorophenyl]methyl]-4-hydroxy-4a-methyl-2-oxo-N-[4-(trifluoromethyl)-2-[6-(trifluoromethyl)pyrimidin-4-yl]phenyl]-6,7-dihydro-5H-pyrrolo[1,2-b]pyridazine-3-carboxamide], for which the “Rate of uptake inhibition (%) (1 µM)” value in test [1] is reported as 54%. Besides, the inhibition in vivo at 0.1 % in feed in test [2] was found to be 26%.

On to `C[C@]12CCCN1N(Cc1ccc(OCCCCCCOC[C@H](O)CO)c(F)c1F)C(=O)C(C(=O)Nc1cnc(C(F)(F)F)nc1-c1ccc(C(F)(F)F)nc1)=C2O` [Example 156, (4aR)-1-[[4-[6-[(2R)-2,3-Dihydroxypropoxy]hexoxy]-2,3-difluorophenyl]methyl]-4-hydroxy-4a-methyl-2-oxo-N-[2-(trifluoromethyl)-4-[6-(trifluoromethyl)pyridin-3-yl]pyrimidin-5-yl]-6,7-dihydro-5H-pyrrolo[1,2-b]pyridazine-3-carboxamide], for which the “Rate of uptake inhibition (%) (1 µM)” value in test [1] is reported as 59%. Besides, in test [2], the inhibition in vivo at 0.1 % in feed was 21%.

With `C[C@]12CCCN1N(Cc1ccc(OCCN3CCOCC3)c(F)c1F)C(=O)C(C(=O)Nc1ccc(C(F)(F)F)cc1-c1cc(C(F)(F)F)ncn1)=C2O` [Example 157, (4aR)-1-[[2,3-Difluoro-4-(2-morpholin-4-ylethoxy)phenyl]methyl]-4-hydroxy-4a-methyl-2-oxo-N-[4-(trifluoromethyl)-2-[6-(trifluoromethyl)pyrimidin-4-yl]phenyl]-6,7-dihydro-5H-pyrrolo[1,2-b]pyridazine-3-carboxamide], the “Rate of uptake inhibition (%) (1 µM)” value in test [1] is listed as 89%. Also, in test [2], the inhibition in vivo at 0.1 % in feed is 30%.

`C[C@]12CCCN1N(Cc1ccc(CN3CCOCC3)c(F)c1F)C(=O)C(C(=O)Nc1ccc(C(F)(F)F)cc1-c1ccc(C(F)(F)F)nc1)=C2O.Cl` [Example 164, (4aR)-1-[[2,3-Difluoro-4-(morpholin-4-ylmethyl)phenyl]methyl]-4-hydroxy-4a-methyl-2-oxo-N-[4-(trifluoromethyl)-2-[6-(trifluoromethyl)pyridin-3-yl]phenyl]-6,7-dihydro-5H-pyrrolo[1,2-b]pyridazine-3-carboxamide; hydrochloride]: in test [1], the “Rate of uptake inhibition (%) (1 µM)” value stood at 64%. For the same compound, the inhibition in vivo at 0.1 % in feed in test [2] worked out at 14%.

Consider `C[C@]12CCCN1N(Cc1cccc(Cl)c1F)C(=O)C(C(=O)Nc1cc(F)c(Br)c(F)c1)=C2O` [Example 196, (4aR)-N-(4-Bromo-3,5-difluorophenyl)-1-[(3-chloro-2-fluorophenyl)methyl]-4-hydroxy-4a-methyl-2-oxo-6,7-dihydro-5H-pyrrolo[1,2-b]pyridazine-3-carboxamide], for which the “Rate of uptake inhibition (%) (1 µM)” value in test [1] stood at 90%. Moreover, the inhibition in vivo at 0.1 % in feed in test [2] turned out to be 35%.

Turning to `CN1[C@@H](C(C)(C)C)C(O)=C(C(=O)Nc2ccc(C(F)(F)F)cc2-c2cc(C(F)(F)F)ncn2)C(=O)N1Cc1ccc(OCCN2CCOCC2)c(F)c1F` [Example 264, (3S)-3-tert-Butyl-1-[[2,3-difluoro-4-(2-morpholin-4-ylethoxy)phenyl]methyl]-4-hydroxy-2-methyl-6-oxo-N-[4-(trifluoromethyl)-2-[6-(trifluoromethyl)pyrimidin-4-yl]phenyl]-3H-pyridazine-5-carboxamide], in test [1], the “Rate of uptake inhibition (%) (1 µM)” value is on record as 48%. For the same compound, the inhibition in vivo at 0.1 % in feed in test [2] was 15%.

Turning to `CN1[C@@H](C(C)(C)C)C(O)=C(C(=O)Nc2ccc(Cl)cc2-c2ccc(C(F)(F)F)nc2)C(=O)N1Cc1ccc(OCCN2CCOCC2)c(F)c1F` [Example 267, (3S)-3-tert-Butyl-N-[4-chloro-2-[6-(trifluoromethyl)pyridin-3-yl]phenyl]-1-[[2,3-difluoro-4-(2-morpholin-4-ylethoxy)phenyl]methyl]-4-hydroxy-2-methyl-6-oxo-3H-pyridazine-5-carboxamide], the “Rate of uptake inhibition (%) (1 µM)” value in test [1] came to 71%. Besides, the inhibition in vivo at 0.1 % in feed in test [2] came out at 18%.

With `CSc1ccc(-c2cc(Cl)ccc2NC(=O)C2=C(O)[C@H](C(C)(C)C)N(C)N(Cc3ccc(OCCN4CCOCC4)c(F)c3F)C2=O)cn1` [Example 269, (3S)-3-tert-Butyl-N-[4-chloro-2-(6-methylsulfanylpyridin-3-yl)phenyl]-1-[[2,3-difluoro-4-(2-morpholin-4-ylethoxy)phenyl]methyl]-4-hydroxy-2-methyl-6-oxo-3H-pyridazine-5-carboxamide], the “Rate of uptake inhibition (%) (1 µM)” value in test [1] was 80%. Further, the inhibition in vivo at 0.1 % in feed in test [2] came out at 15%.

On to `Cc1c(C#N)ncnc1-c1cc(C(F)(F)F)ccc1NC(=O)C1=C(O)[C@H](C(C)(C)C)N(C)N(Cc2ccc(OCCN3CCOCC3)c(F)c2F)C1=O` [Example 270, (3S)-3-tert-Butyl-N-[2-(6-cyano-5-methylpyrimidin-4-yl)-4-(trifluoromethyl)phenyl]-1-[[2,3-difluoro-4-(2-morpholin-4-ylethoxy)phenyl]methyl]-4-hydroxy-2-methyl-6-oxo-3H-pyridazine-5-carboxamide], for which the “Rate of uptake inhibition (%) (1 µM)” value in test [1] is listed as 75%. Moreover, the inhibition in vivo at 0.1 % in feed in test [2] is 20%.

In the case of `CN1N(Cc2ccc(OCCN3CCOCC3)c(F)c2F)C(=O)C(C(=O)Nc2ccc(C(F)(F)F)cc2-c2cc(C(F)(F)F)ncn2)=C(O)C12CCC2` [Example 317, 6-[[2,3-Difluoro-4-(2-morpholin-4-ylethoxy)phenyl]methyl]-9-hydroxy-5-methyl-7-oxo-N-[4-(trifluoromethyl)-2-[6-(trifluoromethyl)pyrimidin-4-yl]phenyl]-5,6-diazaspiro[3.5]non-8-ene-8-carboxamide], the “Rate of uptake inhibition (%) (1 µM)” value in test [1] is 57%. Further, the inhibition in vivo at 0.1 % in feed in test [2] amounted to 22%.

For the compound `CN1N(Cc2ccc(OCCCCC(=O)O)c(F)c2F)C(=O)C(C(=O)Nc2ccc(C(F)(F)F)cc2-c2cc(C(F)(F)F)ncn2)=C(O)C12CCCC2` [Example 333, 5-[2,3-Difluoro-4-[[10-hydroxy-6-methyl-8-oxo-9-[[4-(trifluoromethyl)-2-[6-(trifluoromethyl)pyrimidin-4-yl]phenyl]carbamoyl]-6,7-diazaspiro[4.5]dec-9-en-7-yl]methyl]phenoxy]pentanoic acid], in test [1], the “Rate of uptake inhibition (%) (1 µM)” value amounted to 29%. The inhibition in vivo at 0.1 % in feed in test [2] is 8%.

Regarding `COC[C@@H]1CCCN1CCOc1ccc(CN2C(=O)C(C(=O)Nc3ccc(C(F)(F)F)cc3-c3cc(C(F)(F)F)ncn3)=C(O)C3(CCC3)N2C)c(F)c1F` [Example 345, 6-[[2,3-Difluoro-4-[2-[(2S)-2-(methoxymethyl)pyrrolidin-1-yl]ethoxy]phenyl]methyl]-9-hydroxy-5-methyl-7-oxo-N-[4-(trifluoromethyl)-2-[6-(trifluoromethyl)pyrimidin-4-yl]phenyl]-5,6-diazaspiro[3.5]non-8-ene-8-carboxamide], the “Rate of uptake inhibition (%) (1 µM)” value in test [1] turned out to be 73%. The inhibition in vivo at 0.1 % in feed in test [2] was 19%.
